From US20030171347A1, “Sigma receptor antagonists having anti-cocaine properties and uses thereof” (priority 1998, published 2003)
Like-named read-outs stand apart in the source and are kept apart here.

Key:
σ1 receptors [1] = experiment: Antisense oligodeoxynucleotide (i.c.v.) against cocaine-induced convulsions; format: in vivo, mouse
σ1 receptors [2] = experiment: Antisense oligodeoxynucleotide (i.c.v.), basal locomotor activity; format: in vivo, mouse; details: i.c.v. antisense treatment, 30 min before the cocaine challenge
σ1 receptors [3] = experiment: Antisense oligodeoxynucleotide (i.c.v.) against locomotor stimulatory effects of cocaine; format: in vivo, mouse
rat red nucleus = experiment: Acute dystonic reaction after microinjection into the rat red nucleus; format: in vivo; details: alone and against sigma agonists such as DTG
σ1 receptors [4] = molecular target: T1, σ1 receptors (Cavia porcellus, UniProt Q60492); experiment: σ1 receptor competition binding; design: species or system guinea pig
T1 construct: Crude P2 membranes were prepared from guinea pig brain, rat brain, or rat liver; from tissue; host or cells: guinea pig brain (crude P2 membranes)
T1 sequence (Q60492 whole entry): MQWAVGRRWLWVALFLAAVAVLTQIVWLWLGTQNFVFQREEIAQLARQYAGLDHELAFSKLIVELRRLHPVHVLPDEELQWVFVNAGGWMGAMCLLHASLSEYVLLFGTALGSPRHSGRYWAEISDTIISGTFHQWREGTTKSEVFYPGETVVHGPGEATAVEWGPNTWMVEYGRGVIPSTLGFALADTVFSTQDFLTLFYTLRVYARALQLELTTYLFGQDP

Dopamine (D2) receptors = molecular target: T2, Dopamine (D2) receptors (Rattus norvegicus, UniProt P61169); experiment: Dopamine D2 receptor competition binding ([3H](−)sulpiride)
T2 construct: from tissue; host or cells: rat brain homogenate / P2 membranes
T2 sequence (P61169 whole entry): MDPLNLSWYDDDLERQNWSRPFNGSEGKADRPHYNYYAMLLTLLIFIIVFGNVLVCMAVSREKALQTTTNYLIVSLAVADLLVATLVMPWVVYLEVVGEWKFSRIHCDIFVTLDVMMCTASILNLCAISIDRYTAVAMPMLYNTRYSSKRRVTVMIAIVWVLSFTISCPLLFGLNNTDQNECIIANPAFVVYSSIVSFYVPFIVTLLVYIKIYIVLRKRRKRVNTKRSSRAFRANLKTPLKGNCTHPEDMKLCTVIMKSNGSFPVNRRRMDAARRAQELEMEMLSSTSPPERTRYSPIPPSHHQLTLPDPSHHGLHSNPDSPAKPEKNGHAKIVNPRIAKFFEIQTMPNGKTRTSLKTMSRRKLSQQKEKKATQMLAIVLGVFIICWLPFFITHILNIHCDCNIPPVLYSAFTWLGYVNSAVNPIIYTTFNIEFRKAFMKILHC

[5] = molecular target: PCP sites on NMDA receptors (Rattus norvegicus, UniProt P35439); experiment: PCP site competition binding ([3H]TCP)
5-HT2 receptors = 5-HT2 receptors (Rattus norvegicus, UniProt P14842); experiment: 5-HT2 receptor competition binding ([3H]ketanserin)
Sequence of 5-HT2 receptors (P14842 whole entry): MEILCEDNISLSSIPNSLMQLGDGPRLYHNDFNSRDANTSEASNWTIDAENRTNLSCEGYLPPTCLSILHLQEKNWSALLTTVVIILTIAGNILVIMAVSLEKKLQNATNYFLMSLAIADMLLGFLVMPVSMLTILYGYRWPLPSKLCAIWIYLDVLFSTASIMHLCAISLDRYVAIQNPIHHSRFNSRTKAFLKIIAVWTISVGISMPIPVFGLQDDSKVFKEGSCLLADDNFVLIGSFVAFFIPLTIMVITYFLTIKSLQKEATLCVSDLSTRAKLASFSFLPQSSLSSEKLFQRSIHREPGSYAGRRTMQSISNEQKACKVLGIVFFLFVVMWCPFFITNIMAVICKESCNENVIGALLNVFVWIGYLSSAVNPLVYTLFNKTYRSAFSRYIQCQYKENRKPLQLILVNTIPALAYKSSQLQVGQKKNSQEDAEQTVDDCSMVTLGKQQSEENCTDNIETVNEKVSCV

α1-adrenoceptors = experiment: α1-adrenoceptor competition binding ([3H]prazosin); details: rat brain homogenates
α2-adrenoceptors = experiment: α2-adrenoceptor competition binding ([3H]clonidine); details: rat brain homogenates
β-adrenoceptors = experiment: β-adrenoceptor competition binding ([3H]dihydroalprenolol); details: rat brain homogenates
5-HT1 receptors = experiment: 5-HT1 receptor competition binding ([3H]5-HT); details: rat brain homogenates
[6] = molecular target: T3, muscarinic cholinergic receptors (Rattus norvegicus, UniProt P08482); experiment: Muscarinic cholinergic receptor competition binding
T3 construct: from tissue; host or cells: rat brain homogenate / P2 membranes
T3 sequence (P08482 1-460): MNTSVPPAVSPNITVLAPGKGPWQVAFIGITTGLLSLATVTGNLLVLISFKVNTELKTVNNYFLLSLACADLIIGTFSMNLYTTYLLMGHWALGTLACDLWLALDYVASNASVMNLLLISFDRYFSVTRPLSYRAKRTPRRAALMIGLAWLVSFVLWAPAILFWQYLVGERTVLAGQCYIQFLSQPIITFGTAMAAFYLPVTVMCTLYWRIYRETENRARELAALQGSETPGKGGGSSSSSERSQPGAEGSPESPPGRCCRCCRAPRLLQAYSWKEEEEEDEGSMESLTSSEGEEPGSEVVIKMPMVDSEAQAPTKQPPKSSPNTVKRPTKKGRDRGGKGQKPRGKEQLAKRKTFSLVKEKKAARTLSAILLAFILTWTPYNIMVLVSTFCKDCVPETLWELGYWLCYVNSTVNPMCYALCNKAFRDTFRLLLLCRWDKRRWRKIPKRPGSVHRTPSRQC

Male, Swiss Webster mice [7] = experiment: Effects of sigma ligands alone on baseline locomotor activity; format: in vivo; details: 30 min; i.p. mg/kg: BD1008 1, BD1067 5, BD1047 30, LR172 5, BD1018 30, BD1063 30, LR132 30, LR176 10, YZ011 0.1, YZ027 1, YZ029 5
Male, Swiss Webster mice [8] = experiment: Attenuation of cocaine-induced locomotor activity; format: in vivo; details: same ligand doses as baseline test, 15 min before cocaine 10 mg/kg i.p.; 30 min; ANOVA
σ2 sites = molecular target: T4, σ2 sites (Rattus norvegicus, UniProt Q5U3Y7); experiment: σ2 receptor competition binding
T4 construct: Crude P2 membranes were prepared from guinea pig brain, rat brain, or rat liver; from tissue; host or cells: rat liver (crude P2 membranes)
T4 sequence (Q5U3Y7 1-176): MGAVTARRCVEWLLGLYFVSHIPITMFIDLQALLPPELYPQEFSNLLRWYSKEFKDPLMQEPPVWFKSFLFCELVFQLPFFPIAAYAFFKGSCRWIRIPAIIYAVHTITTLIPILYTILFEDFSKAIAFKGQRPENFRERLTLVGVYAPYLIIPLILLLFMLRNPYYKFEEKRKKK

[9] = NYU sequences, 10 μg/5 μl i.c.v. on Days 1, 2 and 4, cocaine 60 mg/kg i.p. on Day 5
[10] = rat brain homogenates, [3H](−)sulpiride, read-out: Dopamine (D2)
[11] = rat brain homogenates, [3H]TCP, read-out: NMDA (PCP)
[12] = rat brain homogenates, [3H]ketanserin, read-out: 5-HT2
[13] = Table 1, [3H]DTG plus dextrallorphan, rat liver, mean±SEM, minimum of two independent assays
[14] = Table 1, [3H](+)-pentazocine, guinea pig brain, mean±SEM, minimum of two independent assays, read-out: σ1

“5′-CCCACGGCATCCCAGCGG-3′ (all phosphorothioate, sugars by position and methylation of C not given here) [McGill antisense, 18-mer phosphorothioate antisense oligodeoxynucleotide targeting the 5′-end of the σ1 receptor (Kitaichi et al., 1997)]” was tested. Which “effect on cocaine-induced convulsions” value (σ1 receptors [1]; McGill, 10 nmol/5 μl i.c.v. every 12 hours, four times, cocaine 60 mg/kg i.p. 12 hours after last) did it give?
Its value is “significant attenuation of cocaine-induced convulsions”.

What about the basal locomotor activity (σ1 receptors [2]) of the same molecule?
Its basal locomotor activity is “no effects on basal locomotor activity”.

What about the “effect on locomotor stimulatory effects of cocaine” value (σ1 receptors [3]; McGill, 10 nmol/5 μl i.c.v. every 12 hours, four times, cocaine 10 mg/kg i.p.) of the same molecule?
The value was “attenuates the locomotor stimulatory effects of cocaine”.

“5′-GAGGTCCCGACCACACACAGG-3′ (all phosphorothioate, sugars by position and methylation of C not given here) [mismatch]” was tested. Which “effect on cocaine-induced convulsions” value (σ1 receptors [1]; [9]) did it give?
Its value is “responses no different from the saline-treated animals”.

For “5′-GAGTGCCCAGCCACAACCAGG-3′ (all phosphorothioate, sugars by position and methylation of C not given here) [NYU antisense, 21-mer phosphorothioate antisense oligodeoxynucleotide against mouse σ1 receptors (King et al., 1997)]”, which “effect on cocaine-induced convulsions” value (σ1 receptors [1]; [9]) is on record?
Its value is “protected against the convulsive effects of cocaine”.

What about the basal locomotor activity (σ1 receptors [2]) of the same molecule?
The basal locomotor activity was “no effects on basal locomotor activity”.

And the “effect on locomotor stimulatory effects of cocaine” value (σ1 receptors [3]; NYU, 10 μg/5 μl i.c.v. on Days 1, 2 and 4, cocaine 10 mg/kg i.p. on Day 5)?
The value was “attenuates the locomotor stimulatory effects of cocaine”.

With `CC(C)=CCN1CCC2(C)c3cc(O)ccc3CC1C2C` (single isomer, unassigned; (+)) [(+)-Pentazocine, reference compound] as the molecule, how does the “agonist versus antagonist designation (dystonic head postures)” value (rat red nucleus) read?
Its value is “agonists”.

Which results are given for `CN(C)CCN(C)CCc1ccc(Cl)c(Cl)c1` [BD1047]?
Ki (σ1 receptors [4]): 0.0009 ± 0.00014 µM; IC50 (Dopamine (D2) receptors): > 10 µM; IC50 [5]: > 10 µM; IC50 (5-HT2 receptors): 4.67 ± 2.63 µM; IC50 (α1-adrenoceptors): > 10 µM; IC50 (α2-adrenoceptors): > 10 µM; IC50 (β-adrenoceptors): 0.145 ± 0.1 µM; IC50 (5-HT1 receptors): > 10 µM; IC50 [6]: 8 ± 1 µM; agonist versus antagonist designation (dystonic head postures) (rat red nucleus): functional antagonists; baseline horizontal locomotor activity versus saline (Male, Swiss Webster mice [7]): no significant difference; cocaine stimulated locomotor activity after pre-treatment (Male, Swiss Webster mice [8]): significant reduction in cocaine stimulated locomotor activity

What does the source list for `CN1CCN(CCc2ccc(Cl)c(Cl)c2)CC1` [BD1063]?
Ki (σ1 receptors [4]): 0.009 ± 0.001 µM; IC50 (Dopamine (D2) receptors; [10]): > 10 µM; IC50 [5, 11]: > 10 µM; IC50 (5-HT2 receptors; [12]): 2.55 ± 2.42 µM; IC50 (α1-adrenoceptors): > 10 µM; IC50 (α2-adrenoceptors): > 10 µM; IC50 (β-adrenoceptors): > 10 µM; IC50 (5-HT1 receptors): > 10 µM; IC50 ([6]; rat brain homogenates, [3H]pirenzepine, read-out: mACh): 9.46 ± 0.75 µM; agonist versus antagonist designation (dystonic head postures) (rat red nucleus): functional antagonists; baseline horizontal locomotor activity versus saline (Male, Swiss Webster mice [7]): no significant difference; cocaine stimulated locomotor activity after pre-treatment (Male, Swiss Webster mice [8]): significant reduction in cocaine stimulated locomotor activity

How did the Ki (σ1 receptors [4]; read-out: σ1) turn out when `CCCN(CCc1ccc(Cl)c(Cl)c1)CCN1CCCCC1` [BD1069] was run?
The Ki was 0.001 ± 0.0002 µM.

What about the Ki (σ2 sites; [13]) of the same molecule?
The Ki was 0.545 ± 0.139 µM.

And the IC50 (Dopamine (D2) receptors; [10])?
The IC50 was over 10 µM.

What about the IC50 [5, 11] of the same molecule?
The IC50 was over 10 µM.

And the IC50 (5-HT2 receptors; [12])?
Its IC50 is over 10 µM.

What about the “agonist versus antagonist designation (dystonic head postures)” value (rat red nucleus) of the same molecule?
The value was “variable, partial agonist actions”.

How did the Ki (σ2 sites; [13]) turn out when `OC(CCCN1CCN(c2ncc(F)cn2)CC1)c1ccc(F)cc1` (stereo not drawn) [BMY14802, reference compound] was run?
The Ki was 0.051 ± 0.008 µM.

Which results are given for `Fc1ccc(C(OCCN2CCN(CCCc3ccccc3)CC2)c2ccc(F)cc2)cc1` [GBR 12909, reference compound]?
Ki (σ1 receptors [4]; Table 5, dopamine transporter ligands, read-out: σ1): 0.132 ± 0.031 µM; Ki (σ2 sites; Table 5, dopamine transporter ligands): 0.133 ± 0.037 µM

How did the Ki (σ2 sites; [13]) turn out when `C[C@@H]1CN(CCCn2c3ccccc3c3ccccc32)C[C@H](C)N1` [Rimcazole, reference compound] was run?
The Ki was 1.16 ± 0.16 µM.

How did the Ki (σ1 receptors [4]; [14]) turn out when `COc1cccc(CC(=O)N(C)CCN2CCCC2)c1` [YZ-005] was run?
Its Ki is 3.101 ± 0.02 µM.

And the Ki (σ2 sites; [13])?
The Ki was 1.11 ± 0.055 µM.

What about the IC50 (Dopamine (D2) receptors; [10]) of the same molecule?
Its IC50 is over 10 µM.

What about the IC50 [5, 11] of the same molecule?
Its IC50 is over 10 µM.

What about the IC50 (5-HT2 receptors; [12]) of the same molecule?
Its IC50 is over 10 µM.

Which Ki (σ1 receptors [4]; [14]) does the source give for `COc1ccc(CC(=O)N(C)CCN2CCCC2)cc1` [YZ-007] here?
Its Ki is 2.22 ± 0.061 µM.

What about the Ki (σ2 sites; [13]) of the same molecule?
The Ki was 1.22 ± 0.095 µM.

And the IC50 (Dopamine (D2) receptors; [10])?
Its IC50 is over 10 µM.

What about the IC50 [5, 11] of the same molecule?
Its IC50 is over 10 µM.

What about the IC50 (5-HT2 receptors; [12]) of the same molecule?
The IC50 was over 10 µM.

Which results are given for `COc1ccccc1CC(=O)N(C)CCN1CCCC1` [YZ-008]?
Ki (σ2 sites; [13]): 3.17 ± 0.144 µM; IC50 (Dopamine (D2) receptors; [10]): > 10 µM; IC50 [5, 11]: > 10 µM; IC50 (5-HT2 receptors; [12]): > 10 µM

With `CN(CCc1cccc([N+](=O)[O-])c1)CCN1CCCC1` [YZ-027] as the molecule, how does the Ki (σ1 receptors [4]; [14]) read?
The Ki was 0.006 ± 0.002 µM.

And the Ki (σ2 sites; [13])?
The Ki was 0.095 ± 0.0007 µM.

What about the IC50 (Dopamine (D2) receptors; [10]) of the same molecule?
The IC50 was over 10 µM.

What about the IC50 [5, 11] of the same molecule?
The IC50 was over 10 µM.

What about the IC50 (5-HT2 receptors; [12]) of the same molecule?
The IC50 was over 10 µM.

What about the “baseline horizontal locomotor activity versus saline” value (Male, Swiss Webster mice [7]) of the same molecule?
Its value is “no significant difference”.

What about the “cocaine stimulated locomotor activity after pre-treatment” value (Male, Swiss Webster mice [8]) of the same molecule?
Its value is “significant reduction in cocaine stimulated locomotor activity”.
